# Where “and” joins values, the source holds several entries; their conditions need not be identical. Equal values may be shown once.
# Test system: mouse odorant receptors (ORs)
# Test: CRE-luciferase assay of odorant receptor activation (Dual-Glo, Hana3A cells, RTP1S), dose-response EC50
# Type: cell-based
# Details: for log EC50, MOR138-1: receptor MOR138-1; for log EC50, MOR184-1: receptor MOR184-1; for log EC50, MOR189-1 / log EC50 (Table 4 value), MOR189-1: receptor MOR189-1; for log EC50, MOR203-1 / log EC50 of odorant at MOR203-1 (0 = no response) / log EC50 (Table 4 value), MOR203-1: receptor MOR203-1; for log EC50 of odorant at MOR5-1 (0 = no response): receptor MOR5-1; for log EC50 of odorant at MOR30-1 (0 = no response): receptor MOR30-1; for log EC50 of odorant at MOR33-1 (0 = no response): receptor MOR33-1; for log EC50 of odorant at MOR40-1 (0 = no response): receptor MOR40-1; for log EC50 of odorant at MOR260-1 (0 = no response): receptor MOR260-1; for log EC50 (Table 4 value), MOR161-1: receptor MOR161-1; for log EC50 (Table 4 value), MOR162-1: receptor MOR162-1; for log EC50 (Table 4 value), MOR170-1: receptor MOR170-1; for log EC50 (Table 4 value), MOR185-1: receptor MOR185-1; for log EC50 (Table 4 value), MOR207-1: receptor MOR207-1; for log EC50 (Table 4 value), MOR222-1: receptor MOR222-1; for log EC50 (Table 4 value), MOR273-1: receptor MOR273-1
# [1] = receptor MOR41-1, 0 = no response
# [2] = receptor MOR139-1, 0 = no response
# [3] = receptor MOR271-1, 0 = no response
# [4] = receptor MOR272-1, 0 = no response
# [5] = receptor MOR261-1, 0 = no response
structure (smiles),measurement,setting,value
C=C(C)[C@@H]1CC[C@@H](C)C(=O)C1 [(+)-Dihydrocarvone],"log EC50, MOR41-1",[1],−4.301
same,"log EC50, MOR138-1",0 = no response,−3.498
same,"log EC50, MOR139-1",[2],−3.637
same,"log EC50, MOR182-1","receptor MOR182-1, 0 = no response",−3.406
same,"log EC50, MOR184-1",0 = no response,−3.55
same,"log EC50, MOR189-1",0 = no response,−3.976
same,"log EC50, MOR203-1",0 = no response,−4.241
same,"log EC50, MOR271-1",[3],−3.987
same,"log EC50, MOR272-1",[4],−4.273
CCCCCCCCC(=O)O [Nonanoic acid],log EC50 of odorant at MOR5-1 (0 = no response),,−4.029
same,log EC50 of odorant at MOR18-1 (0 = no response),receptor MOR18-1,−4.077
same,log EC50 of odorant at MOR30-1 (0 = no response),,−4.396
same,log EC50 of odorant at MOR33-1 (0 = no response),,−4.606
same,log EC50 of odorant at MOR37-1 (0 = no response),receptor MOR37-1,−3.9
same,log EC50 of odorant at MOR40-1 (0 = no response),,−4.128
same,log EC50 of odorant at MOR203-1 (0 = no response),,−3.478
same,log EC50 of odorant at MOR260-1 (0 = no response),,−4.108
CC(=O)Oc1ccccc1 [Phenyl acetate],log EC50 of odorant at MOR41-1 (0 = no response),receptor MOR41-1,−4.143
same,log EC50 of odorant at MOR106-1 (0 = no response),receptor MOR106-1,−3.874
same,log EC50 of odorant at MOR139-1 (0 = no response),receptor MOR139-1,−3.421 and −3.385
same,log EC50 of odorant at MOR223-1 (0 = no response),receptor MOR223-1,−3.487
same,log EC50 of odorant at MOR250-1 (0 = no response),receptor MOR250-1,−3.545
same,log EC50 of odorant at MOR258-1 (0 = no response),receptor MOR258-1,−3.099
same,log EC50 of odorant at MOR271-1 (0 = no response),receptor MOR271-1,−5.033
same,log EC50 of odorant at MOR272-1 (0 = no response),receptor MOR272-1,−5.098
CC(=O)c1ccccc1 [Acetophenone],"log EC50 (Table 4 value), MOR41-1",receptor MOR41-1,−5.039
same,"log EC50 (Table 4 value), MOR105-1",receptor MOR105-1,−3.429
same,"log EC50 (Table 4 value), MOR106-1",receptor MOR106-1,−3.854
same,"log EC50 (Table 4 value), MOR129-1",receptor MOR129-1,−5.484
same,"log EC50 (Table 4 value), MOR139-1",receptor MOR139-1,−3.935
same,"log EC50 (Table 4 value), MOR161-1",,−3.825
same,"log EC50 (Table 4 value), MOR162-1",,−4.778
same,"log EC50 (Table 4 value), MOR170-1",,−3.9
same,"log EC50 (Table 4 value), MOR185-1",,−4.016
same,"log EC50 (Table 4 value), MOR189-1",,−3.372
same,"log EC50 (Table 4 value), MOR207-1",,−3.608
same,"log EC50 (Table 4 value), MOR250-1",receptor MOR250-1,−3.975
same,"log EC50 (Table 4 value), MOR258-1",receptor MOR258-1,−3.358
same,"log EC50 (Table 4 value), MOR271-1",receptor MOR271-1,−4.05
same,"log EC50 (Table 4 value), MOR272-1",receptor MOR272-1,−3.922
O=C1CCOc2ccccc21 [4-Chromanone],"log EC50 (Table 4 value), MOR41-1",receptor MOR41-1,−4.747
same,"log EC50 (Table 4 value), MOR129-1",receptor MOR129-1,−3.785
same,"log EC50 (Table 4 value), MOR139-1",receptor MOR139-1,−4.028
same,"log EC50 (Table 4 value), MOR162-1",,−4.225
same,"log EC50 (Table 4 value), MOR170-1",,−4.209
same,"log EC50 (Table 4 value), MOR185-1",,−3.833
same,"log EC50 (Table 4 value), MOR189-1",,−3.684
same,"log EC50 (Table 4 value), MOR207-1",,−3.724
same,"log EC50 (Table 4 value), MOR222-1",,−3.618
same,"log EC50 (Table 4 value), MOR271-1",receptor MOR271-1,−4.047
same,"log EC50 (Table 4 value), MOR272-1",receptor MOR272-1,−4.043
same,"log EC50 (Table 4 value), MOR273-1",,−4.201
same,"log EC50 (Table 4 value), MOR277-1",receptor MOR277-1,−3.415
CCCCCCCCCCO [1-Decanol],"log EC50, MOR203-1",0 = no response,−3.299
same,"log EC50, MOR261-1",[5],−3.273
CCCCCCCC(=O)O [Octanoic Acid],log EC50 of odorant at MOR5-1 (0 = no response),,−3.711
same,log EC50 of odorant at MOR23-1 (0 = no response),receptor MOR23-1,−5.053
same,log EC50 of odorant at MOR25-1 (0 = no response),receptor MOR25-1,−3.689
same,log EC50 of odorant at MOR30-1 (0 = no response),,−3.68
same,log EC50 of odorant at MOR33-1 (0 = no response),,−4.212
same,log EC50 of odorant at MOR40-1 (0 = no response),,−3.617
C=CCOC(=O)Cc1ccccc1 [Allyl phenylacetate],"log EC50 (Table 4 value), MOR1-1",receptor MOR1-1,−3.581
same,"log EC50 (Table 4 value), MOR2-1",receptor MOR2-1,−3.253
same,"log EC50 (Table 4 value), MOR139-1",receptor MOR139-1,−3.625
same,"log EC50 (Table 4 value), MOR203-1",,−3.401
same,"log EC50 (Table 4 value), MOR222-1",,−3.369
same,"log EC50 (Table 4 value), MOR223-1",receptor MOR223-1,−4.178
same,"log EC50 (Table 4 value), MOR236-1",receptor MOR236-1,−4.052
same,"log EC50 (Table 4 value), MOR258-17",receptor MOR258-17,−3.842
same,"log EC50 (Table 4 value), MOR261-1",receptor MOR261-1,−3.425
same,"log EC50 (Table 4 value), MOR268-1",receptor MOR268-1,−3.434
same,"log EC50 (Table 4 value), MOR271-1",receptor MOR271-1,−4.23
same,"log EC50 (Table 4 value), MOR272-1",receptor MOR272-1,−4.824
CCCCCCCCS [Octanethiol],log EC50 of odorant at MOR203-1 (0 = no response),,−3.356
CCCCCCCO [1-Heptanol],"log EC50, MOR41-1",[1],−3.68
same,"log EC50, MOR203-1",0 = no response,−3.387
same,"log EC50, MOR261-1",[5],−3.382
same,"log EC50, MOR271-1",[3],−3.47
same,"log EC50, MOR272-1",[4],−4.181
"C=C(C)C1CC=C(C)C(=O)C1 (single isomer, unassigned; (-)) [(−)-Carvone]","log EC50, MOR41-1",[1],−4.257
same,"log EC50, MOR139-1",[2],−3.861
same,"log EC50, MOR184-1",0 = no response,−3.92
same,"log EC50, MOR189-1",0 = no response,−4.147
same,"log EC50, MOR203-1",0 = no response,−3.938
same,"log EC50, MOR271-1",[3],−4.14
CC(=O)OCc1ccccc1 [Benzyl acetate],"log EC50 (Table 4 value), MOR41-1",receptor MOR41-1,−3.972
same,"log EC50 (Table 4 value), MOR139-1",receptor MOR139-1,−3.729
same,"log EC50 (Table 4 value), MOR203-1",,−3.531
same,"log EC50 (Table 4 value), MOR223-1",receptor MOR223-1,−3.841
same,"log EC50 (Table 4 value), MOR261-1",receptor MOR261-1,−3.352
same,"log EC50 (Table 4 value), MOR271-1",receptor MOR271-1,−5.379
same,"log EC50 (Table 4 value), MOR272-1",receptor MOR272-1,−4.948
O=c1ccc2ccccc2o1 [Coumarin],"log EC50 (Table 4 value), MOR41-1",receptor MOR41-1,−4.785
same,"log EC50 (Table 4 value), MOR106-1",receptor MOR106-1,−3.919
same,"log EC50 (Table 4 value), MOR129-1",receptor MOR129-1,−4.04
same,"log EC50 (Table 4 value), MOR139-1",receptor MOR139-1,−3.749
same,"log EC50 (Table 4 value), MOR161-1",,−3.139
same,"log EC50 (Table 4 value), MOR162-1",,−4.483
same,"log EC50 (Table 4 value), MOR170-1",,−3.989
same,"log EC50 (Table 4 value), MOR185-1",,−4.042
same,"log EC50 (Table 4 value), MOR189-1",,−3.215
same,"log EC50 (Table 4 value), MOR207-1",,−3.905
same,"log EC50 (Table 4 value), MOR250-1",receptor MOR250-1,−3.855
same,"log EC50 (Table 4 value), MOR258-1",receptor MOR258-1,−4.296
same,"log EC50 (Table 4 value), MOR259-1",receptor MOR259-1,−3.834
C=C(C)[C@H]1CC=C(C)C(=O)C1 [(+)-Carvone],"log EC50, MOR41-1",[1],−4.644
same,"log EC50, MOR129-1","receptor MOR129-1, 0 = no response",−4.145
same,"log EC50, MOR139-1",[2],−4.032
same,"log EC50, MOR184-1",0 = no response,−3.812
same,"log EC50, MOR189-1",0 = no response,−4.302
same,"log EC50, MOR203-1",0 = no response,−3.814
same,"log EC50, MOR250-1","receptor MOR250-1, 0 = no response",−3.938
same,"log EC50, MOR271-1",[3],−4.098
same,"log EC50, MOR272-1",[4],−4.564
"CC(C)=CCCC(C)CCO (single isomer, unassigned; (-)) [(−)-b-C ? inedol]","log EC50, MOR138-1",0 = no response,−3.347
same,"log EC50, MOR203-1",0 = no response,−3.147
CCCCCCCCCS [Nonanethiol],log EC50 of odorant at MOR203-1 (0 = no response),,−3.528
same,log EC50 of odorant at MOR260-1 (0 = no response),,−4.488
same,log EC50 of odorant at MOR261-1 (0 = no response),receptor MOR261-1,−3.376
same,log EC50 of odorant at MOR268-1 (0 = no response),receptor MOR268-1,−3.589
CCCCCC1=C(C)CCC1=O [Dihydroiasmone],"log EC50 (Table 4 value), MOR41-1",receptor MOR41-1,−3.766
same,"log EC50 (Table 4 value), MOR139-1",receptor MOR139-1,−4.308
same,"log EC50 (Table 4 value), MOR189-1",,−3.945
same,"log EC50 (Table 4 value), MOR205-1",receptor MOR205-1,−4.699
same,"log EC50 (Table 4 value), MOR271-1",receptor MOR271-1,−4.126
same,"log EC50 (Table 4 value), MOR272-1",receptor MOR272-1,−4.447
same,"log EC50 (Table 4 value), MOR273-1",,−4.441
CC(C)=CCC/C(C)=C/CO [Getaniol],"log EC50 (Table 4 value), MOR139-1",receptor MOR139-1,−3.939
same,"log EC50 (Table 4 value), MOR203-1",,−3.622
same,"log EC50 (Table 4 value), MOR238-1",receptor MOR238-1,−3.843
same,"log EC50 (Table 4 value), MOR268-1",receptor MOR268-1,−3.897
